Laboratory results reported in patent US7115622B2, “Amido ether substituted imidazoquinolines” (3M Innovative Properties Company, priority 2000, dated 2006).

Legend:
interferon (α) = assay: Cytokine Induction in Human Cells: interferon induction in PBMC; assay type: cell-based; parameters: key to Lowest Effective Concentration (μM) Interferon: *: no induction was seen at any of the tested concentrations; generally the highest concentration tested was 10 or 30 μM; conditions: 18 to 24 hours incubation, tested 30–0.014 μM, ELISA; for minimal effective concentration: read-out: Lowest Effective Concentration (μM) Interferon
Source text: (§1) An in vitro human blood cell system is used to assess cytokine induction. Activity is based on the measurement of interferon and tumor necrosis factor (α) (IFN and TNF, respectively) secreted into culture media as described by Testerman et. al. In “Cytokine Induction by the Immunomodulators Imiquimod and S-27609”, Journal of Leukocyte Biology, 58, 365–372 (September, 1995).
(§2) Whole blood from healthy human donors is collected by venipuncture into EDTA vacutainer tubes. Peripheral blood mononuclear cells (PBMC) are separated from whole blood by density gradient centrifugation using Histopaque®-1077. Blood is diluted 1:1 with Dulbecco's Phosphate Buffered Saline (DPBS) or Hank's Balanced Salts Solution (HBSS). The PBMC layer is collected and washed twice with DPBS or HBSS and resuspended at 4×10^6 cells/mL in RPMI complete. The PBMC suspension is added to 48 well flat bottom sterile tissue culture plates (Costar, Cambridge, Mass. or Becton Dickinson Labware, Lincoln Park, N.J.) containing an equal volume of RPMI complete media containing test compound.
(§3) The compounds are solubilized in dimethyl sulfoxide (DMSO). The DMSO concentration should not exceed a final concentration of 1% for addition to the culture wells. The compounds are generally tested at concentrations ranging from 30–0.014 μM.
(§4) The solution of test compound is added at 60 μM to the first well containing RPMI complete and serial 3 fold dilutions are made in the wells. The PBMC suspension is then added to the wells in an equal volume, bringing the test compound concentrations to the desired range (30–0.014 μM). The final concentration of PBMC suspension is 2×10^6 cells/mL. The plates are covered with sterile plastic lids, mixed gently and then incubated for 18 to 24 hours at 37° C. in a 5% carbon dioxide atmosphere.
(§5) Following incubation the plates are centrifuged for 10 minutes at 1000 rpm (˜200×g) at 4° C. The cell-free culture supernatant is removed with a sterile polypropylene pipet and transferred to sterile polypropylene tubes. Samples are maintained at −30 to −70° C. until analysis. The samples are analyzed for interferon (α) by ELISA and for tumor necrosis factor (α) by ELISA or IGEN Assay
Interferon (α) and Tumor Necrosis Factor (α) Analysis by ELISA Interferon (α) concentration is determined by ELISA using a Human Multi-Species kit from PBL Biomedical Laboratories, New Brunswick, N.J. Results are expressed in pg/mL.
(§6) The table below lists the lowest concentration found to induce interferon and the lowest concentration found to induce tumor necrosis factor for each compound.

[1] = system: tumor necrosis factor (α); assay: Cytokine Induction in Human Cells: tumor necrosis factor induction in PBMC; assay type: cell-based; parameters: key to Lowest Effective Concentration (μM) Tumor Necrosis Factor: *: no induction was seen at any of the tested concentrations; generally the highest concentration tested was 10 or 30 μM; conditions: 18 to 24 hours incubation, tested 30–0.014 μM, ELISA or IGEN assay; for minimal effective concentration: read-out: Lowest Effective Concentration (μM) Tumor Necrosis Factor
Source text: as §1, §2, §3, §4, §5
Tumor necrosis factor (α) (TNF) concentration is determined using ELISA kits available from Biosource International, Camarillo, Calif. Alternately, the TNF concentration can be determined by Origen® M-Series Immunoassay and read on an IGEN M-8 analyzer from IGEN International, Gaithersburg, Md. The immunoassay uses a human TNF capture and detection antibody pair from Biosource International, Camarillo, Calif. Results are expressed in pg/mL.
as §6

Row | melting point [°C] | SMILES | minimal effective concentration (interferon (α)) [µM] | minimal effective concentration [1] [µM] | also measured
1 | 184 to 187 | COCCc1nc2c(N)nc3ccccc3c2n1CCOCCNC(=O)c1ccccc1 [Example 4, N-(2-{2-[4-amino-2-(2-methoxyethyl)-1H-imidazo[4,5-c]quinolin-1-yl]ethoxy}ethyl)benzamide] |  |  | 
2 | 141 to 143 | COCCc1nc2c(N)nc3c(c2n1CCOCCNC(=O)c1ccccc1)CCCC3 [Example 6, N-(2-{2-[4-amino-2-(2-methoxyethyl)-6,7,8,9-tetrahydro-1H-imidazo[4,5-c]quinolin-1-yl]ethoxy}ethyl)benzamide] |  |  | 
3 | 93.5 to 97 | COCCc1nc2c(N)nc3ccccc3c2n1CCOCCN(C)C(=O)c1ccccc1 [Example 8, N-(2-{2-[4-amino-2-(2-methoxyethyl)-1H-imidazo[4,5-c]quinolin-1-yl]ethoxy}ethyl)-N-methylbenzamide] |  |  | 
4 | 83 to 87 | COCCc1nc2c(N)nc3c(c2n1CCOCCN(C)C(=O)c1ccccc1)CCCC3 [Example 10, N-(2-{2-[4-amino-2-(2-methoxyethyl)-6,7,8,9-tetrahydro-1H-imidazo[4,5-c]quinolin-1-yl]ethoxy}ethyl)-N-methylbenzamide] |  |  | 
5 |  | N#Cc1ccc(C(=O)NCCOCCn2cnc3c(N)nc4ccccc4c32)cc1 [Example 57] | 10 |  | Lowest Effective Concentration (μM) Tumor Necrosis Factor [1]: *
6 |  | Nc1nc2ccccc2c2c1ncn2CCOCCNC(=O)CCc1ccccc1 [Example 58] | 10 | 10 | 
7 |  | COc1cccc(C(=O)NCCOCCn2cnc3c(N)nc4ccccc4c32)c1 [Example 59] | 10 | 10 | 
8 |  | COc1ccc(C(=O)NCCOCCn2cnc3c(N)nc4ccccc4c32)cc1 [Example 60] | 10 | 10 | 
9 |  | Nc1nc2ccccc2c2c1ncn2CCOCCNC(=O)c1ccc(Cl)nc1 [Example 61] | 10 | 10 | 
10 |  | Nc1nc2ccccc2c2c1ncn2CCOCCNC(=O)COCc1ccccc1 [Example 62] | 1 | 10 | 
11 |  | Nc1nc2ccccc2c2c1ncn2CCOCCNC(=O)c1ccc2ccccc2c1 [Example 63] |  | 10 | Lowest Effective Concentration (μM) Interferon (interferon (α)): *
12 |  | Nc1nc2ccccc2c2c1ncn2CCOCCNC(=O)c1cccc(C(F)(F)F)c1 [Example 64] | 10 |  | Lowest Effective Concentration (μM) Tumor Necrosis Factor [1]: *
13 |  | Nc1nc2ccccc2c2c1ncn2CCOCCNC(=O)c1ccc(C(F)(F)F)cc1 [Example 65] |  |  | Lowest Effective Concentration (μM) Interferon (interferon (α)): *; Lowest Effective Concentration (μM) Tumor Necrosis Factor [1]: *
14 |  | Nc1nc2ccccc2c2c1ncn2CCOCCNC(=O)c1ccc(OC(F)(F)F)cc1 [Example 66] |  |  | Lowest Effective Concentration (μM) Interferon (interferon (α)): *; Lowest Effective Concentration (μM) Tumor Necrosis Factor [1]: *
15 | 188 to 191 | CCc1nc2c(N)nc3ccccc3c2n1CCOCCNC(=O)c1ccccc1 [Example 71, N-{2-[2-(4-amino-2-ethyl-1H-imidazo[4,5-c]quinolin-1-yl)ethoxy]ethyl}benzamide] |  |  | 
16 | 154 to 156 | CCOCc1nc2c(N)nc3ccccc3c2n1CCOCCNC(=O)c1ccccc1 [Example 72, N-(2-{2-[4-amino-2-(ethoxymethyl)-1H-imidazo[4,5-c]quinolin-1-yl]ethoxy}ethyl)benzamide] |  |  | 
